Values joined by “and” are separate entries in the source; they are usually repeats but may differ in a detail not shown here. Equal entries are not always repeated. Where two headings read alike, the source gives them in different places.
How the values were obtained:
[1] = system: MDAMB-435 tumor xenografts; test: MDAMB-435 human breast orthotopic xenograft (Example 57); assay type: in vivo, nude NCRNU mice; details: four weeks; for Final Tumor Weight (V/Vo) ± SEM: control 3.77 ± 0.38
Method: Female nude NCRNU mice, 5-6 weeks old, weighing approximately 20 grams, were implanted with 2×10^6 MDAMB-435 cells into the subaxillary mammary fat pad. When the tumors were 100 mm^3, the animals were pair-matched into treatment and control groups. Each group contained 6-7 tumored mice, each of which was ear-tagged and followed individually throughout the experiment. Initial doses of T8 or TP3 peptide or vehicle control were given on the day of pair-matching (Day 0), and were administered via intraperitoneal (i.p.) injection at doses indicated. Mice were weighed twice weekly, and tumor measurements were taken by calipers twice weekly, starting on Day 1. These tumor measurements were converted to tumor volume by a well-known formula, (V=W^2×L/2) and mean tumor volumes as well as volume ratios (V/Vo) were plotted against time. Mice were euthanized at the end of the treatment period. Upon termination, the mice were weighed, sacrificed and their tumors were excised. The mean tumor weight per group was calculated, and the mean value (treated tumor ratio/mean control tumor ratio× 100) was subtracted from 100% to give the tumor growth inhibition (TGI) for each group.
Treatment was initiated when tumor volumes reached […]. All groups received injections I.P. daily, except for one T8-treated group, which was treated twice per week.

PC3 tumor xenografts [2] = test: PC3 human prostate tumor xenograft (Example 58); assay type: in vivo, nude NCRNU mice
Method: Male nude NCRNU mice, 5-6 weeks old, weighing approximately 25 grams, 6 were implanted with 2×10^6 PC3 cells into the dorsal subcutis. When the tumors were 60 mm^3, the animals were pair-matched into treatment and control groups. Each group contained 6-7 tumored mice, each of which was ear-tagged and followed individually throughout the experiment. Initial doses of peptide or vehicle control were given on the day of pair-matching (Day 0), and were administered via intraperitoneal (i.p.) injection at doses indicated. Mice were weighed weekly, and tumor measurements were taken by calipers weekly. These tumor measurements were converted to tumor volume by a well-known formula, (V=W^2×L/2), and mean tumor volumes were plotted against time. Mice were euthenized at the end of the treatment period. Upon termination, the mice were weighed, sacrificed and their tumors were excised. The mean tumor weight per group was calculated, and the value of mean treated tumor volume or volume ratio/mean control tumor volume or volume ratio×100 was subtracted from 100% to give the tumor growth inhibition (TG1) for each group. All groups received injections I.P. daily, except for two T8-treated groups, which were treated twice per week and once a week, respectively.

[3] = system: MDAMB-435 tumor xenografts; assay type: in vivo; details: for Final Tumor Weight ± SEM: control 333.3 ± 39.61
Method: Female nude NCRNU mice, 5-6 weeks old, weighing approximately 20 grams, were implanted with 2×10^6 MDAMB-435 cells in the subaxillary mammary fat pad. When the tumors were 100 mm^3, the animals were pair-matched into treatment and control groups. Each group contained 7 tumored mice, each of which was ear-tagged and followed individually throughout the experiment. Initial doses of T8 peptide or vehicle control were given on the day of pair-matching (Day 0), and were administered via intraperitoneal (i.p.) injection at 1 mg and 2.5 mg per kg animal weight. Mice were weighed twice weekly, and tumor measurements were taken by calipers twice weekly, starting on Day 1. These tumor measurements were converted to tumor volume by the well-known formula V=W2×L/2, and mean tumor volumes were plotted against time. Mice were euthenized at the end of the treatment period. Upon termination, the mice were weighed, sacrificed and their tumors were excised. The mean tumor weight per group was calculated, and the value of (mean treated tumor weight/mean control tumor weight×100) was subtracted from 100% to give the tumor growth inhibition (TGI) for each group.
Treatment was initiated when tumor volumes reached 100 mm^3. All groups received injections bid, i.p., for 26 days.

[4] = system: MDAMB-435 tumor xenografts; test: MDAMB-435 human breast tumor xenograft (Example 59); assay type: in vivo, nude NCRNU mice; details: 5.0 mg/kg i.p. daily, 3 weeks
From the text: (§1) For tests involving the MDAMB-435 model, female nude NCRNU mice, 5-6 weeks old, weighing approximately 20 grams, were implanted with 2×10^6 MDAMB-435 cells into the subaxillary mammary fat pad. For tests involving the PC3 model, male nude NCRNU mice, 5-6 weeks old, weighing approximately 25 g were implanted with 2×10^6 PC3 cells into the dorsal subcutis. When the tumors were 100 mm^3 (for the MDAMB-435 model), or 60 mm^3 (for the PC3 model), the animals were pair-matched into treatment and control groups.
(§2) Each group contained 6-7 tumored mice, each of which was ear-tagged and followed individually throughout the experiment. Initial doses of peptide or vehicle control were given on the day of pair-matching (Day 0), and were administered daily via intraperitoneal (i.p.) injection at doses indicated. Mice were weighed weekly, and tumor measurements were taken by calipers weekly, starting on Day 0. These tumor measurements were converted to tumor volume by a well-known formula, (V=W^2×L/2) and mean tumor volumes were plotted against time. Mice were euthenized at the end of the treatment period. Upon termination, the mice were weighed, sacrificed and their tumors were excised. The mean tumor weight per group was calculated, and the mean treated tumor volume/control tumor volume×100 was subtracted from 100% to give the tumor growth inhibition (TGI) for each group.

PC3 tumor xenografts [5] = test: PC3 human prostate tumor xenograft (Example 59); assay type: in vivo, nude NCRNU mice; details: 5.0 mg/kg i.p. daily, 3 weeks
From the text: as §1, §2

[6] = system: mouse aortic endothelial cells (MAE); test: Endothelial tube formation on Matrigel; assay type: cell-based; details: endothelial tube assay (FIGS. 30 and 31)
Method: To measure inhibition of endothelial tube formation, 320 μl of Matrigel (Collaborative Biomedical Products, Bedford, Mass., USA) was added to each well of a 24-well plate and allowed to polymerize (Grant, D. S. et al., 1994, Pathol. Res. Pract. 190:854-63). A suspension of 25,000 mouse aortic endothelial cells (MAE) in EGM-2 medium (Clonetics Corp., San Diego, Calif., USA) without antibiotic was passed into each well coated with Matrigel. The cells were treated with increasing concentrations of either Arresten, BSA, sterile PBS or the 7S domain. All assays were performed in triplicate. Cells were incubated for 24-48 hours at 37° C. and viewed using a CK2 Olympus microscope (3.3 ocular, 10× objective). The cells were then photographed using 400 DK coated TMAX film (Kodak). Cells were stained with diff-quik fixative (Sigma Chemical Company, St. Louis, Mo., USA) and photographed again. Ten fields were viewed, and the tubes counted and averaged.
Matrigel (Collaborative Biomedical Products, Bedford, Mass., USA) was added ([…]) to each well of a 24 well plate and allowed to polymerize (Grant, D. S. et al., supra). A suspension of 25,000 mouse aortic endothelial cells (MAE) in EGM-2 (Clonetics Corporation, San Diego, Calif., USA) medium without antibiotic was passed into each well coated with Matrigel. The cells were treated with either Canstatin, BSA, sterile PBS or α5-NC1 domain in increasing concentrations. All assays were performed in triplicate. Cells were incubated for 24-48 hours at 37° C. and viewed using a CK2 Olympus microscope (3.3 ocular, 10× objective). The cells were then photographed using 400 DK coated TMAX film (Kodak). Cells were stained with diff-quik fixative (Sigma Chemical Co., St. Louis, Mo., USA) and photographed again (Grant, D. S. et al., 1994, Pathol. Res. Pract. 190:854-63). Ten fields were viewed, tubes counted and averaged.
Matrigel (Collaborative Biomedical Prods., Bedford, Mass., USA) was added ([…]) to each well of a 24-well plate and allowed to polymerize (Grant, D. S. et al., 1994, Pathol. Res. Pract. 190:854-63). A suspension of 25,000 MAE cells in EGM-2 medium (Clonetics Corporation, San Diego, Calif., USA) without antibiotic was passed into each well coated with Matrigel (Grant, D. S. et al., 1994, Pathol. Res. Pract. 190:854-63). The cells were treated with either Tumstatin, BSA or 7S domain in increasing concentrations. Control cells were incubated with sterile PBS. All assays were performed in triplicate. Cells were incubated for 24-48 hours at 37° C. and viewed using a CK2 Olympus microscope (magnification of 3.3× ocular, 10× objective). The cells were then photographed using 400 DK coated TMAX film (Kodak). Cells were stained with diff-quik fixative (Sigma Chemical Co.) and photographed again (Grant, D. S. et al., 1994, Pathol. Res. Pract. 190:854-63). Ten fields were viewed, and the number of tubes were counted by two investigators unaware of the experimental protocols, and averaged.
Fragments and mutants of Arresten and Canstatin were also made according to the Pseudomonas elastase digestions of Mariyama et al. (1992, J. Biol. Chem. 267:1253-58). The digest was resolved by gel filtration HPLC and the resultant fragments were analyzed by SDS-PAGE and evaluated in the endothelial tube assay described above. These fragments included a 12 kDa fragment of Arresten, an 8 kDa fragment of Arresten, and a 10 kDa fragment of Canstatin. In addition, two fragments of Tumstatin (‘333’ and ‘334’) were generated by PCR cloning.

[7] = 5.0 mg/kg i.p. daily, 3 weeks, T7 vehicle 5.626 ± 0.38, T8 vehicle 6.278 ± 1.483
[8] = 5.0 mg/kg, printed (2x/week) again, once a week in the text

## KLFCNVNCVCNFASRNDYS (TP3 (amino acids 76-94 of SEQ ID NO10; lysine has been substituted for the phenylalanine residue at position 76 of the full-length Tumstatin molecule, and cysteine has been substituted for the aspartic acid at position 83))
[1]; 1.0 mg/kg I.P. daily
  Final Tumor Weight (V/Vo) ± SEM: 2.62 ± 0.45
[1]; 5.0 mg/kg I.P. daily
  % Tumor growth inhibition: 50.0%
  Final Tumor Weight (V/Vo) ± SEM: 1.88 ± 0.29
PC3 tumor xenografts [2]; 5.0 mg/kg i.p. daily, 3 weeks
  % Tumor growth inhibition: 53.2%
PC3 tumor xenografts [2]; [7]
  Final Tumor Weight (V/Vo) ± SEM: 2.940 ± 0.636

## KQRFTTMPFLFCNVNDVCNFASRNDYS [T8]
[3]; 2.5 mg/kg, bid i.p., 26 days
  % Tumor growth inhibition: ~49% and 47.91%
  Final Tumor Weight ± SEM: 173.6 ± 23.73
[3]; Dosage 1.9 mg/kg as printed (1 mg/kg in the text), bid i.p., 26 days
  Final Tumor Weight ± SEM: 237.8 ± 31.88
[3]; mouse, in vivo
  toxicity as judged by weight change: no toxicity
[1]; 5.0 mg/kg (2x/week)
  Final Tumor Weight (V/Vo) ± SEM: 2.21 ± 0.31
[1]; 5.0 mg/kg I.P. daily
  % Tumor growth inhibition: 31%
  Final Tumor Weight (V/Vo) ± SEM: 2.60 ± 0.38
PC3 tumor xenografts [2]; 5.0 mg/kg (2x/week)
  % Tumor growth inhibition: 8.1%
  Final Tumor Weight (V/Vo) ± SEM: 5.770 ± 1.156
PC3 tumor xenografts [2]; 5.0 mg/kg i.p. daily, 3 weeks
  % Tumor growth inhibition: 45%
PC3 tumor xenografts [2]; [7]
  Final Tumor Weight (V/Vo) ± SEM: 3.455 ± 1.228
PC3 tumor xenografts [2]; [8]
  % Tumor growth inhibition: 39.5%
  Final Tumor Weight (V/Vo) ± SEM: 3.800 ± 1.602
[4]
  % Tumor growth inhibition: 50.5%
[4]; control 468.5 ± 48.06
  Final Tumor Weight (V/Vo) ± SEM: 231.9 ± 27.03
PC3 tumor xenografts [5]
  % Tumor growth inhibition: 35.4%
PC3 tumor xenografts [5]; control 1070.0 ± 132.5
  Final Tumor Weight (V/Vo) ± SEM: 691.4 ± 90.52

B1: Tumstatin 333: residues 1 to 124 of full-length Tumstatin (SEQ ID NO:20) (protein)
chain: GLKGKRGDSGSPATWTTRGFVFTRHSQTTAIPSCPEGTVPLYSGFSFLFVQGNQRAHGQDLGTLGSCLQRFTTMPFLFCNVNDVCNFASRNDYSYWLSTPALMPMNMAPITGRALEPYISRCTV
modifications: Tumstatin 333 (amino acids 1-124 of3 SEQ ID NO10)
[6]
  ED50: 0.075 µg/mL

B2: Tumstatin 334: residues 125 to 244 of full-length Tumstatin (SEQ ID NO:21) (protein)
chain: CEGPAIAIAVHSQTTDIPPCPHGWISLWKGFSFIMFTSAGSEGTGQALASPGSCLEEFRASPFLECHGRGTCNYYSNSYSFWLASLNPERMFRKPIPSTVKAGELEKIISRCQVCMKKRH
modifications: Tumstatin 334 (amino acids 125-244 of SEQ ID NO10)
[6]
  ED50: 0.02 µg/mL

Source: US7387779B2, “Anti-angiogenic proteins and fragments and methods of use thereof” (Beth Israel Deaconess Medical Center, priority 1998, dated 2008)
